Laboratory results as given in the supplement of paper PMC8837787.

Tested on: Saccharomyces cerevisiae ABC16-Green Monster
Experiment: growth inhibition at single dose (up to 150 µM), below the 70% cut-off for dose-response; higher = more potent
Details: 18 h; 30 °C; YPD
Method in brief: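 Data are given as percent growth inhibition. Log-phase drug-sensitive S. cerevisiae ABC16-Green Monster cells (OD600 0.1–0.2, 200 µl per well in 96-well plates) were treated in biological duplicates with each library compound at a single 150 µM dose, with untreated cultures alongside, and OD600 was measured at 0 h and after 18 h at 30 °C. Compounds falling below 70% in both replicates were not taken to dose-response.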

Row | SMILES | growth inhibition at single dose
1 | N#Cc1ccc(NC(=O)Cn2ncc(Cl)c(Cl)c2=O)cc1 | < 70%
2 | CCn1nc(C)c(Sc2nccn2C)c1C | < 70%
3 | FC(F)(F)c1cnc(Sc2nnc(-c3ccncc3)o2)c(Cl)c1 | < 70%
4 | C=C(C)COc1ccc(-c2onc(C)c2-c2ccc(OC)c(OC)c2)c(O)c1 | < 70%
5 | CCN(CC)S(=O)(=O)c1ccc(C(C)NC(=O)c2nn(CC)c(=O)c3ccccc23)cc1 (configuration not stated) | < 70%
6 | CC1(C)OB(O)c2ccc(C3=NOC(c4cc(Cl)c(F)c(Cl)c4)(C(F)(F)F)C3)cc21 (configuration not stated) | < 70%
7 | CCCc1c(CC)c(=N)c2ccccc2n1C | < 70%
8 | Cc1cc2nnc(-c3ccc(C(F)(F)F)cc3)n2[nH]1 | < 70%
9 | CC(Oc1ccc2ccc(=O)oc2c1)C(=O)N1CCc2ccccc21 (configuration not stated) | < 70%
10 | CC(C)(C)C(=O)Nc1ccc(-c2nc3ncccc3o2)c(Cl)c1 | < 70%
11 | OC(CNCc1ccccc1)Cn1c2ccccc2c2ccccc21 (configuration not stated) | < 70%
12 | Cc1nc(-c2ccc(CCNc3ncnc4sccc34)cc2)cs1 | < 70%
13 | OC[C@H]1O[C@@H](n2c3ccc(Cl)cc3c3c(-c4cc5ccccc5o4)ncnc32)C(O)[C@H]1O (some centres not stated) | < 70%
14 | Nc1ncc(-c2ccc(C(F)(F)F)nc2)cc1-c1ccc(C(F)(F)F)nc1 | < 70%
15 | Cc1ccnc2nc(C(=O)Nc3cc(C(F)(F)F)ccc3N3CCCCCC3)nn12 | < 70%
16 | O=C(NC1CCN(c2nccc(C(F)(F)F)n2)CC1)c1ccco1 | < 70%
17 | CN1CCCN(C(=O)CCNC(=O)/C=C/c2ccco2)c2nc3ccccc3nc21 | < 70%
18 | COc1ccccc1CNC(=O)C1c2ccccc2C(=O)N(CC(C)C)C1c1cccs1 (configuration not stated) | < 70%
19 | CS(=O)(=O)Cc1nc2ccccc2oc1=O | < 70%
20 | COCCn1c(C)nc2ccccc2c1=O | < 70%
21 | O=C(NC1CCN(Cc2ccccc2)CC1)c1cc(C(=O)NC2CCN(Cc3ccccc3)CC2)cc(C(=O)NC2CCN(Cc3ccccc3)CC2)c1 | < 70%

Row | SMILES | growth inhibition at single dose
22 | O=C(Nc1ccc(-c2nc3cc4ccccc4cc3[nH]2)cc1)c1cccc(Br)c1 | < 70%
23 | CCOC(=O)CSCc1noc(COc2ccc(Cl)cc2Cl)n1 | < 70%
24 | COc1nc2ccc(Br)cc2cc1[C@@H](c1ccccc1)[C@@](O)(CCN(C)C)c1cccc2ccccc12 | < 70%
25 | O=C(Nc1nc(-c2ccccn2)cs1)c1ccc(-n2cncn2)cc1 | < 70%
26 | Cc1nc(-c2ccccn2)nc(NCCc2ccc(S(C)(=O)=O)cc2)c1Cl | < 70%
27 | CC(NC(C)c1ccc(Cl)cc1)C(=O)Nc1sccc1C(N)=O (configuration not stated) | < 70%
28 | CC(C)n1ncc2c(C(=O)NCC(c3cccs3)N3CCOCC3)cc(-c3ccccc3)nc21 (configuration not stated) | < 70%
29 | O=C(N/N=C/c1ccc(O)cc1O)c1ccc[n+]([O-])c1 | < 70%
30 | Cc1cc(C2=NNC(=NC3CC3)SC2)c(C)n1-c1ccccn1 | < 70%
31 | CCOC(=O)c1nn(CCc2ccccc2)c2c1CN(C(=O)c1cc(C)n[nH]1)CC2 | < 70%
32 | O=C(Nc1ccc2nc(-c3ccccc3Cl)[nH]c2c1)c1ccc(=O)[nH]n1 | < 70%
33 | COc1ccc(CNc2ncnc3ccccc23)cc1 | < 70%
34 | Cc1cccc(C(=O)Nc2ccnc(N(C)C3CCN(CC(C)C)CC3)c2)c1 | < 70%
35 | CCOc1ccccc1NC(=O)/C=C/c1nnc2c3ccccc3cnn12 | < 70%
36 | C=CCNC(=O)C(C)Sc1nnc(-c2ccc(C)cc2)c(-c2ccc(C)cc2)n1 (configuration not stated) | < 70%
37 | O=C(NCc1cc(Cl)cc(Cl)c1)c1c(C(F)(F)F)nc2ccccn12 | < 70%
38 | CC(Nc1ncnc2sccc12)c1ccc(-n2cncn2)cc1 (configuration not stated) | < 70%
39 | Cc1cc(OCC(=O)Nc2ccc(C(C)C)cc2)n(C)c(=O)c1C#N | < 70%
40 | COc1ccc(-c2c(C)nn3c(N)c(C#N)cnc23)cc1OC | < 70%
41 | Cc1ccc2c(C)nc(Nc3nc(C)cc(-c4ccccc4)n3)nc2c1 | < 70%
42 | CCc1cccc2c(C(=O)COC(=O)C34CC5CC(CC(O)(C5)C3)C4)c[nH]c12 | < 70%

Row | SMILES | growth inhibition at single dose
43 | Cc1cc(Nc2ccc(C)c(Cl)c2)n2nc(C(F)(F)F)nc2n1 | < 70%
44 | COc1ccc(C(=O)C2CC2c2ccc(Cl)cc2)cc1 (configuration not stated) | < 70%
45 | Nc1cccnc1Nc1ccc(Cl)cc1 | < 70%
46 | Clc1ccc(Cl)c(-c2ccc(CNCCN3CCNCC3)o2)c1 | < 70%
47 | COc1cc(OC)c(N(C)C(=O)c2cc3c(s2)-c2ccccc2S(=O)(=O)C3)cc1Cl | < 70%
48 | CCN(CC)CCn1c(NC(=O)c2cnc3c(cnn3C(C)C)c2)nc2ccccc21 | < 70%
49 | Cc1cccc(NC(=O)c2cc(S(=O)(=O)N(C)c3ccc(F)cc3)ccc2Cl)n1 | < 70%
50 | COCCNC(=O)c1nn(CCC(C)C)c2c1CN(C(=O)c1cc(C)n[nH]1)CC2 | < 70%
51 | COC(=O)c1c(NC(=O)c2c(F)c(F)c(F)c(F)c2F)sc2c1CCCCC2 | < 70%
52 | O=C1CC(O)(C(F)(F)C(F)(F)F)Oc2ccccc21 (configuration not stated) | < 70%
53 | Cc1c(C)n(CCCO)c2ncn3nc(-c4ccc(N(C)C)cc4)nc3c12 | < 70%
54 | Cn1cc(/C=C/C(=O)Nc2ncc(Cc3ccccc3)s2)cn1 | < 70%
55 | CC1CC(C)C[N+](=C2C=C(N3CCCC3)CC(C)(C)C2)C1 (configuration not stated) | < 70%
56 | Cc1ccsc1C(=O)Nc1ccc(N2CCN(C)CC2)cn1 | < 70%
57 | Cc1ccc(-c2cc3c(nn2)-c2ccccc2C3=O)cc1 | < 70%
58 | COc1cc(CNCCc2ccc(Cl)cc2)cc(OC)c1O | < 70%
59 | Oc1ccc(-c2nc(-c3ccc4oc5ccc(-c6[nH]c(-c7ccc(O)cc7)nc6-c6ccccc6)cc5c4c3)c(-c3ccccc3)[nH]2)cc1 | < 70%
60 | COc1cc(C2=NCCN2)cc2cc(-c3ccc(C4=NCCN4)cc3)oc12 | < 70%
61 | CCC(Sc1nc2ccccc2o1)C(=O)Nc1nnc(C)s1 (configuration not stated) | < 70%
62 | CNC(=O)c1ccc(CN(C2CC2)S(=O)(=O)c2ccc(C)cc2C)cc1 | < 70%
63 | CC(NC(=O)c1cccc(Nc2ncccn2)c1)c1cccc(C(F)(F)F)c1 (configuration not stated) | < 70%

Row | SMILES | growth inhibition at single dose
64 | COc1ccc(CN2CCN(Cc3ccccc3)CC2)c(O)c1 | < 70%
65 | COc1ccccc1N1C(=N)SC(=Cc2ccc(OCc3ccccc3F)cc2)C1=O | < 70%
66 | CCN(CC)S(=O)(=O)c1ccc(OC(C)C)c(NC(=O)C2=CN3CCS(=O)(=O)N=C3C=C2)c1 | < 70%
67 | COc1ccc(F)cc1CN(Cc1ccc(C(=O)NC2CC2)cc1)Cc1ccco1 | < 70%
68 | N=c1n(CCN2CCCCC2)c2ccccc2n1CC(O)c1cccc(Br)c1 (configuration not stated) | < 70%
69 | COc1ccc2nc(C)cc(OCC(=O)NCc3ccccc3)c2c1 | < 70%
70 | O=C(Nc1ccc(Cl)cc1)Nc1nnc(CSCc2ccc(Cl)cc2)s1 | < 70%
71 | c1ccc2c(c1)[nH]c1nc(SCc3cn4ccsc4n3)nnc12 | < 70%
72 | COc1ccc(C)c2sc(N(Cc3cccnc3)C(=O)c3ccc(C#N)cc3)nc12 | < 70%
73 | CCn1c(SCC(=O)Nc2cc(C(F)(F)F)ccc2Cl)nc2ccccc2c1=O | < 70%
74 | Cc1nc(-c2ccccn2)nc(N2CCCC2)c1Cl | < 70%
75 | Cc1ccc(Nc2nc(N)c3ccccc3n2)cc1Cl | < 70%
76 | COc1cc2c(cc1OC)C1=NNC(=O)C1=NC(C)(C)C2 | < 70%
77 | O=C(NNc1cc(N2CCCC2)nc(N2CCCC2)n1)c1ccccc1 | < 70%
78 | c1ccc(Oc2ccc(-c3cc(N4CCNCC4)[nH]n3)cc2)cc1 | < 70%
79 | Cc1ccc(C2CC(C(F)(F)F)n3nc(C(=O)N4CCN(C(c5ccccc5)c5ccccc5)CC4)cc3N2)cc1 (configuration not stated) | < 70%
80 | Cc1cc(N2CCCC2)nc(Nc2ccc(NC(=O)CCc3ccccc3)cc2)n1 | < 70%
81 | COc1cc(-c2nc(-c3ccc(Sc4ccccc4)cc3)c(-c3ccccc3)[nH]2)cc(OC)c1O | < 70%
82 | O=C(Nc1ccc(N2CCOCC2)nc1)c1ccc(S(=O)(=O)N2CCCc3ccccc32)cc1 | < 70%
